Values quoted from earlier work as cited in patent US8442776B2, “Structure of compstatin-C3 complex and use for rational drug design” (The Trustees of the University of Pennsylvania, priority 2007, dated 2013).

What was measured:
[1] = test system: complement system (C3 activation); conditions: read-out: inhibitory activity IC50

IC50 [1]: 12 µM
binding to primate C3 (primate C3): binds only to primate C3
Structure (SMILES): CC[C@H](C)[C@H](N)C(=O)N[C@H]1CSSC[C@@H](C(=O)N[C@H](C(N)=O)[C@@H](C)O)NC(=O)[C@H](CCCN=C(N)N)NC(=O)[C@H](Cc2cnc[nH]2)NC(=O)[C@H](Cc2cnc[nH]2)NC(=O)CNC(=O)[C@H](Cc2c[nH]c3ccccc23)NC(=O)[C@H](CC(=O)O)NC(=O)[C@H](CCC(N)=O)NC(=O)[C@H](C(C)C)NC(=O)[C@H](C(C)C)NC1=O [Compstatin]
